Data from patent publication US20150338330A1, “Method for Comprehensive Assessment of Platelet Aggregation” (FUJIMORI KOGYO CO., LTD.,, priority 2012, published 2015).

Tests used:
Assay type in all cases: cell-based
platelets [1] = assay: Filter back-pressure measurement of platelet aggregation, ADP reagent (final 5.6 μM), citrated blood; set-up: area under the curve of the pressure waveform: unit not given beside the values; conditions: for area under the curve of the pressure waveform: 60 μl/minute, 5 minutes
Protocol: (§1) The apparatus in FIG. 1 was prepared for use in the following experiments.
(§2) As the container 1 (blood reservoir), a cylindrical acrylic container having a capacity of 450 μl (inner diameter, 6 mm; depth, 16 mm) was used.
(§3) As the filter, a circular nickel micromesh filter having 30 μm×30 μm square openings (pitch size, 45 μm) and a diameter of 1 mm, placed at the center of the filter section was used.
To the blood reservoir, 13 μl of […] ADP reagent (Dynabite GmbH, Germany) (final concentration, 5.6 μM) was added, and 450 μl of blood collected in a Terumo blood collection tube (Venoject, containing 3.13% sodium citrate) was added thereto. The resulting mixture was mixed in the blood reservoir, and the filter device was connected to the blood reservoir. One minute after the mixing of the blood with the ADP reagent, mineral oil was injected into the blood reservoir at a flow rate of 60 μl/minute to inject the blood into the filter device.
The back pressure exerted on the mineral oil was continuously monitored for 5 minutes at intervals of 1 second using the pressure sensor. In addition, the same measurement was carried out for blood to which AR-C66096 (platelet P2Y12 receptor inhibitor; Tocris Bioscience, UK) was added to a final concentration of 25, 50, 100, or 250 nM.

platelets [2] = assay: Multiplate impedance-based whole blood platelet aggregation, ADP (final 6.5 μM); conditions: ADP 6.5 μM
Protocol: To provide controls, whole blood platelet aggregation was similarly measured for blood to which AR-C66096 was added to a final concentration of 25, 50, 100, or 250 nM, using Multiplate (impedance-based platelet aggregability analyzer, Dynabite GmbH). As the platelet-activating reagent, ADP (final concentration, 6.5 μM) was used. […] That is, in the absence of a physical load by blood flow or the like, platelet aggregates that have once adhered/aggregated to the electrode were maintained without breakdown, leading to the increase in the electric resistance.

platelets [3] = assay: Filter back-pressure measurement of platelet aggregation, arachidonic acid (6.25 mM or 10 mM), citrated blood
Protocol: as §1, §2, §3
To the blood reservoir, 30 or 50 μl (final concentration, 6.25 mM or 10 mM, respectively) of 100 mM arachidonic acid (manufactured by Dynabite GmbH) was added, and 450 μl of blood collected in a Terumo blood collection tube (Venoject, containing 3.13% sodium citrate) was added thereto. After mixing the resulting mixture, the filter device was connected to the blood reservoir. One minute after the mixing of the blood with the collagen reagent, mineral oil was injected into the blood reservoir at a flow rate of 60 μl/minute to inject the blood into the filter device.
The back pressure exerted on the mineral oil was continuously monitored for 5 minutes at intervals of 1 second using the pressure sensor. In addition, the same measurement was carried out for a mixture prepared by mixing 50 μl of an arachidonic acid reagent with blood to which aspirin was added to a final concentration of 100 μM.

platelets [4] = assay: Filter back-pressure measurement of platelet aggregation, collagen reagent (final 0.7 μg/ml), citrated blood; conditions: aspirin 100 μM; collagen 0.7 μg/ml
Protocol: (§4) The apparatus in FIG. 1 was prepared for use in the following experiments. As the container 1 (blood reservoir), a cylindrical acrylic container having a capacity of 450 μl (inner diameter, 6 mm; depth, 16 mm) was used. As the filter, a circular nickel micromesh filter having 30 μm×30 μm square openings (pitch size, 45 μm) and a diameter of 1 mm, placed at the center of the filter section was used. To the blood reservoir, 13 μl of 25 μg/ml (final concentration, 0.7 μg/ml) collagen reagent (manufactured by Dynabite GmbH) was added, and 450 μl of blood collected in a Terumo blood collection tube (Venoject, containing 3.13% sodium citrate) was added thereto. After mixing the resulting mixture, the filter device was connected to the blood reservoir. One minute after the mixing of the blood with the collagen reagent, mineral oil was injected into the blood reservoir at a flow rate of 60 μl/minute to inject the blood into the filter device. The back pressure exerted on the mineral oil was continuously monitored for 5 minutes at intervals of 1 second using the pressure sensor. In addition, the same measurement was carried out for blood to which aspirin was added to a final concentration of 100 μM, or blood to which both 50 μM aspirin and 250 μM AR-C66096 were added.

platelets [5] = assay: Multiplate impedance-based whole blood platelet aggregation, collagen (final 3.2 μg/ml); conditions: aspirin 100 μM; collagen 3.2 μg/ml
Protocol: To provide controls, whole blood platelet aggregation was similarly measured for blood to which aspirin was added to a final concentration of 100 μM, and blood to which both 50 μM aspirin and 250 μM AR-C66096 were added, using Multiplate (impedance-based platelet aggregability analyzer, Dynabite GmbH). As the platelet-activating reagent, collagen (final concentration, 3.2 μg/ml) was used.

platelets [6] = assay: Filter back-pressure measurement of platelet aggregation, PAR1-activating reagent (SFLLRN), citrated blood; conditions: aspirin 100 μM
Protocol: as §4, with “reservoir, 20” for “reservoir, 13”, “of 1 mM PAR1-activating” for “of 25 μg/ml (final concentration, 0.7 μg/ml) collagen”, “reagent (peptide sequence, […]; manufactured” for “reagent (manufactured”, “reservoir. […]” for “reservoir. One minute after the mixing of the blood with the collagen reagent, mineral oil was injected into the blood reservoir at a flow rate of 60 μl/minute to inject the blood into the filter device.”, “sensor. The” for “sensor. In addition, the”, “100 μM.” for “100 μM, or blood to which both 50 μM aspirin and 250 μM AR-C66096 were added.”

platelets [7] = assay: Filter back-pressure measurement of platelet aggregation, PAR4-activating reagent (AYPGKF), citrated blood; conditions: aspirin 100 μM
Protocol: as §4, with “reservoir, 20” for “reservoir, 13”, “of 20 mM PAR4-activating” for “of 25 μg/ml (final concentration, 0.7 μg/ml) collagen”, “reagent (peptide sequence, AYPGKF; manufactured” for “reagent (manufactured”, “sensor. The” for “sensor. In addition, the”, “100 μM.” for “100 μM, or blood to which both 50 μM aspirin and 250 μM AR-C66096 were added.”

platelets [8] = assay: Filter back-pressure measurement, collagen reagent (final 1.4 μg/ml), repeated 5 times; conditions: collagen final 1.4 μg/ml; 5 times of measurement; no inhibitor
Protocol: as §1, §2, §3
To the blood reservoir, 13 μl of 50 μg/ml (final concentration, 1.4 μg/ml) collagen reagent (manufactured by Dynabite GmbH) was added, and 450 μl of blood collected in a Terumo blood collection tube (Venoject, containing 3.13% sodium citrate) was added thereto. After mixing the resulting mixture, the filter device was connected to the blood reservoir. One minute after the mixing of the blood with the collagen reagent, mineral oil was injected into the blood reservoir at a flow rate of 60 μl/minute to inject the blood into the filter device.
The back pressure exerted on the mineral oil was continuously monitored for 5 minutes at intervals of 1 second using the pressure sensor. The measurement was repeated 5 times.

[9] = AR-C66096 25-250 nM, ADP 5.6 μM

## CCCSc1nc(N)c2ncn([C@@H]3O[C@H](COP(=O)(O)OP(=O)(O)C(F)(F)P(=O)(O)O)[C@@H](O)[C@H]3O)c2n1 [AR-C66096]
Platelets [1]; AR-C66096 25 nM, ADP 5.6 μM
  area under the curve of the pressure waveform: 11.75
Platelets [1]; AR-C66096 50 nM or 100 nM, arch-shaped pressure curves
  stability and persistence of platelet aggregates: suppressed
Platelets [1]; AR-C66096 50 nM, ADP 5.6 μM
  area under the curve of the pressure waveform: 8.7
Platelets [1]; AR-C66096 100 nM, ADP 5.6 μM
  area under the curve of the pressure waveform: 8.05
Platelets [1]; AR-C66096 250 nM, ADP 5.6 μM
  area under the curve of the pressure waveform: 7.95
Platelets [1]; [9]
  beginning of the pressure increase: delayed
  pressure increase: suppressed the pressure increase in a concentration-dependent manner
Platelets [2]; AR-C66096 25 nM
  AUC (Multiplate impedance): 23
Platelets [2]; AR-C66096 50 nM
  AUC (Multiplate impedance): 19
Platelets [2]; AR-C66096 100 nM
  AUC (Multiplate impedance): 15
Platelets [2]; AR-C66096 250 nM
  AUC (Multiplate impedance): 17
Platelets [2]; AR-C66096 25-250 nM
  concentration dependence of AUC (Multiplate): no concentration dependence was found

## CCCCC/C=C\C/C=C\C/C=C\C/C=C\CCCC(=O)O [arachidonic acid]
Platelets [3]; arachidonic acid 6.25 mM or 10 mM
  platelet activation / pressure: activated platelets to increase the pressure

## CC(=O)Oc1ccccc1C(=O)O [aspirin]
Platelets [4]
  beginning of the pressure increase: delayed
  pressure increase: suppressed
Platelets [5]
  AUC of the electric resistance (Multiplate): 28
  effect on Multiplate aggregation: an effect of aspirin could be found
Platelets [3]; aspirin 100 μM, 50 μl arachidonic acid reagent (10 mM)
  pressure increase: suppressed
Platelets [6]
  aggregation waveform obtained by the PAR1-activating peptide: not inhibited
Platelets [7]
  aggregation waveform obtained by the PAR4-activating peptide: not inhibited

## collagen
Platelets [8]
  area under the curve of the pressure waveform (mean±SD): 15.11±0.8
